Reference: patent US20150141506A1, “INDANE DIMERS FOR USE IN THE TREATMENT OF AUTOIMMUNE INFLAMMATORY DISEASE” (Venantius Limited, priority 2012, published 2015)
Values after ≈ are worked out from the molar mass of the structure shown. Like-named read-outs stand apart in the source and are kept apart here. Marks after values point to notes of the source that are not given here.

What was measured:
[1] = tested on: 5% DSS colitis in BDF 1 mice; test: 5% DSS murine colitis, Experiment 2 (Method 2); format: in vivo; conditions: day 7, 10 ml/kg oral gavage daily day 0-6, 5-ASA 100 mg/kg; for DAI versus vehicle: 31 at 2 mg/ml, 47 at 4 mg/ml
Excerpt: A total of 90 BDF 1 (H. Pylori-free, murine norovirus-free) male mice (Harlan Laboratories, UK) were used in the study. Animals were 8-10 weeks old on supply and used at 10-12 weeks of age. All mice were held in individually ventilated cages (IVCs) in an SPF (Specific Pathogen Free) barrier unit. The animals were identified by numbered cages and by ear punches.
Mice were randomised into study groups. All the mice in any one cage received the same treatment and were ear punched for identification purposes. Daily body weight measurements were used to calculate the volume of test item or vehicle administered in the applicable groups.
DSS (MP Biomedicals 0216011090, lot# M2709) was prepared as a 5% (w/v) solution in the drinking water and made fresh daily on days 0 to 6 inclusive. DSS was administered from day 0 to day 7.
Test items were stored at −20° C. until the initiation of the study. Each test item was formulated as a homogenous suspension in 0.5% carboxymethyl cellulose (CMC, Sigma C4888) in sterile water (Sigma W3500, lot# RNBC1419), using an Ultraturax homogeniser, on study day −1. Compound 31 was formulated at 2 mg/ml and 47 was formulated at 4 mg/ml. After formulation the test item and the vehicle stocks anonymised with a letter code. All solutions were stored at 4° C. during the study, with 3.8 ml of each suspension being dispensed daily. Test items were administered by oral gavage, daily at 09.00 hrs, at 10 ml/kg, from study day 0 to study day 6.
5-ASA (5-Aminosalicylic acid, Sigma A3537, lot#051M1878V) was aliquoted into pre-weighed amounts between 71 and 84 mg. Like test item suspensions, these aliquots were anonymised by a letter code. […]
Any animal was culled if the weight loss was greater than 20%. Animal well-being was monitored daily. Once daily from day 0 until the end of the study, all mice were weighed and assessed for stool consistency, and the presence of overt blood in the stool or around the anus according to the criteria in 2.1 […]

[2] = tested on: IL2 release from Jurkat cells; test: Effect of compounds on IL-2 secretion in T lymphocytes (Jurkat 6.1, anti-CD3/anti-CD28 stimulated, ELISA); format: cell-based; conditions: 30 min pre-treatment, 24 h, DMSO control 320.67 (plate 2), 338.25 (plate 3)
Method: The T cell line Jurkat 6.1 (ATCC) was used. Cells were pre-treated for 30 min with 1 μM or 10 μM of the respective compound and then stimulated with plate-bound anti-CD3 (BD Pharmingen) and anti-CD28 (AnCell). DMSO was used as vehicle control. […] After 24 hs the supernatant was collected and IL-2 secretion was measured by ELISA.
Compounds were prepared by dissolution in DMSO to yield final concentrations of 1 and 10 μg/ml

[3] = tested on: 5% DSS colitis in BALB/c mice; test: Acute murine 5% DSS colitis model, Experiment 1; format: in vivo; conditions: for activity in 5% DSS murine colitis (DAI), in words: 30 mg/kg p.o. daily for 7 days
Excerpt: The study is widely used as a model for studying the pathogenesis of UC and also for screening new therapeutic interventions for the treatment of UC.
In these studies, an acute colitis model was used, with 5% DSS administered in the drinking water of BALB/c mice. This dosage regime induces severe acute colitis, by days 7-8 mice had overt rectal bleeding and marked weight loss; unless sacrificed beforehand, all mice would have died by days 10-12.
Specific Pathogen-Free BALB/c mice, 6-8 weeks of age, were obtained from a commercial supplier (Harlan UK). Mice were fed irradiated diet and housed in individually ventilated cages (Tecniplast UK) under positive pressure.
DSS (5%) was dissolved in drinking water. Compounds were administered orally at a dose of 10 mg/kg or 30 mg/kg on days 0-7, and mice were culled on day 8 or day 9, depending on the severity of the disease. The mice were checked each day for morbidity and the weight of individual mice was recorded. Induction of colitis was determined upon autopsy, length of colon and histology. Colons were recovered and stored at −20° C. for immunological analysis. All of the compounds and experimental groups are randomly alphabetically labelled. Throughout experiments all data recording was performed in a blind manner. The codes on boxes/groups were not broken until after the data was analysed i.e. boxes labelled A, B, C etc were identified as untreated, DSS-treated, or DSS+compound-treated.
To quantify the extent of colitis, a disease activity index (DAI) was determined based on weight loss, faecal blood and stool consistency. A score was given for each parameter, with the sum of the scores used as the DAI. For each treatment group n=8.
All compounds were prepared for oral gavage (0.1 mL per os (p.o.) per 10 g body weight) as a suspension in 0.5% carboxymethyl cellulose/2% Tween 80, at a dose of 3-30 mg/Kg.

[4] = Solubility in Milli-RO water and pH buffers; format: physicochemical; conditions: for aqueous solubility, in words: free acid enantiomers
Method: The sodium salt, potassium salt, calcium salt, α-methylbenzylamine salt and N-Methyl-(D)-Glucamine salt were synthesised.
The solubility of the four compounds were determined: […]

[5] = Partition coefficient (Log10 POW) by HPLC method; format: physicochemical; conditions: reverse phase C18 HPLC; for Log10 POW, Acid: acidic pH; for Log10 POW, Basic: alkaline pH; for Log10 POW, Neutral: neutral pH
[6] = day 7, 10 mg/kg daily for 7 days, vehicle 9.3±0.51
[7] = day 7, 30 mg/kg p.o. daily for 7 days, vehicle 9.0±0.53

Compound	DAI versus vehicle [1]	loss of body weight versus vehicle control ([1]; 47 formulated at 4 mg/ml)	IL-2 production, absolute values ([2]; compound 1 uM)	IL-2 production, absolute values ([2]; compound 10 uM)	activity in 5% DSS murine colitis (DAI), in words [3]	disease activity index (DAI) [3, 6]	disease activity index (DAI) [3, 7]	solubility ([4]; Milli-RO water, water, read-out: solubility, Milli-RO H20)	aqueous solubility, in words [4]	solubility ([4]; pH 4.0 buffer, pH 4, aqueous buffer, read-out: solubility, pH 4.0 Buffer)	solubility ([4]; pH 7.0 buffer, pH 7, aqueous buffer, read-out: solubility, pH 7.0 Buffer)	solubility ([4]; pH 9.0 buffer, pH 9, aqueous buffer, read-out: solubility, pH 9.0 Buffer)	Log10 POW, Acid [5]	Log10 POW, Basic [5]	Log10 POW, Neutral [5]	potency compared among the four enantiomers, in words ([3]; 30 and 10 mg/kg)	solubility, Milli-RO H20 ([4]; Milli-RO water, listed as Compound 5 N-Methyl-D-Glucamine salt)	solubility, pH 4.0 Buffer ([4]; pH 4.0 buffer)	solubility, pH 7.0 Buffer ([4]; pH 7.0 buffer, listed as Compound 5 N-Methyl-D-Glucamine salt)	solubility, pH 9.0 Buffer ([4]; pH 9.0 buffer, listed as Compound 5 N-Methyl-D-Glucamine salt)
O=C(Nc1ccc(O)c(C(=O)O)c1)c1ccc(C[C@@]2(C3=Cc4ccccc4C3)Cc3ccccc3[C@H]2O)cc1 [Compound 47, 2-hydroxy-5-(4-(((1S,2S)-1-hydroxy-2,3-dihydro-1H,1′H-[2,2′-biinden]-2-yl)methyl)benzamido)benzoic acid]	reduced DAI comparable or equal to 5ASA	does not result in an increase in loss of body weight	99.64 pg/mL	98.79 pg/mL	–	–	–	–	–	–	–	–	–	–	–	–	–	–	–	–
O=C(O)c1ccc(C[C@]2(C3=Cc4ccccc4C3)Cc3ccccc3[C@H]2O)cc1 [Compound 5, 4-(((1S,2R)-1-hydroxy-2,3-dihydro-1H,1′H-2,2′-biinden-2-yl)methyl)benzoic acid]	–	–	127.29 pg/mL	134.14 pg/mL	highly active	no significant (P>0.05) effect	3.2±0.73	1.38 µg/mL (≈ 3.61 µM)	limited aqueous solubility	0.33 µg/mL (≈ 0.863 µM)	320 µg/mL (≈ 837 µM)	370 µg/mL (≈ 966 µM)	3.9	3.7	3.7	–	–	–	–	–
O=C(O)c1ccc(C[C@@]2(C3=Cc4ccccc4C3)Cc3ccccc3[C@H]2O)cc1 (single isomer, unassigned) [Compound 2]	–	–	98.71 pg/mL	124.36 pg/mL	highly active	2.1±0.7	2.5±0.71	–	limited aqueous solubility	–	–	–	–	–	–	most potent of the four enantiomers	–	–	–	–
NCC(=O)O[C@@H]1c2ccccc2C[C@@]1(Cc1ccc(C(=O)O)cc1)C1=Cc2ccccc2C1 [Compound 31, 4-{[(1′S,2′S)-1′-(glycyloxy)-1′,3′-dihydro-1H,2′H-2,2′-biinden-2′-yl]methyl}benzoic acid]	reduced DAI comparable or equal to 5ASA	–	233.38 pg/mL	225.63 pg/mL	–	–	–	–	–	–	–	–	–	–	–	–	–	–	–	–
CNCC(O)C(O)C(O)C(O)CO.O=C(O)c1ccc(C[C@]2(C3=Cc4ccccc4C3)Cc3ccccc3[C@H]2O)cc1 [Compound 7, 6-(Methylamino)hexane-1,2,3,4,5-pentanol 4-(((1S,2R)-1-hydroxy-2,3-dihydro-1H,1′H-2,2′-biinden-2-yl)methyl)benzoate]	–	–	–	–	–	no significant (P>0.05) effect	–	–	–	–	–	–	3.8	3.5	3.5	–	>60,000* μg/mL	0.14 μg/mL	>60,000* μg/mL	>60,000* μg/mL
